Values of other authors as cited in patent publication US5308833A, “Method for treating hepatitis B carriers with minimal disease” (SciClone Pharmaceuticals, priority 1992, dated 1994).
Where no end group is shown, it is not given here.

Assays:
lymphocyte = conditions: individuals suffering from chronic active hepatitis B

In the case of “thymosin α-1 (SDAAVDTSSEITTKDLKEKKEVVEEAEN; ends and bridges not checked; UniProt P06454 2-29, looked up) [28 amino acid peptide originally isolated from calf thymus thymosin fraction 5]”, the “hepatitis B virus DNA in serum” value (hepatitis B virus; patients with chronic active hepatitis B administered the peptide) is listed as “cleared hepatitis B virus DNA from serum”, the “serum HBV DNA after treatment was terminated” value (hepatitis B virus; patients with chronic active hepatitis B, after treatment was terminated) is listed as “tested persistently negative for serum HBV DNA” and the lymphocyte counts (lymphocyte) is listed as “increases in lymphocyte counts”. For the same substance, the “production of γ-interferon” value (lymphocyte) was “enhance production of γ-interferon”.
